Results from patent US20210170035A1, “METHOD OF TREATING CANCER BY TARGETING MYELOID-DERIVED SUPPRESSOR CELLS” (priority 2016, published 2021).

Experiments:
[1] = test system: 4T1 solid tumor
Protocol: 4T1 solid tumor model: Female balb/c mice at the age of 6 to 8 weeks were kept on a folate deficient diet for 2 weeks. Before tumor implantation, fur on the left side of the mouse body was removed by an electric trimmer. 0.05 million 4T1 cells suspended in 50 μL completed RPMI 1640 medium were subcutaneously implanted near the mammary fat pad. Treatment was commenced at day 6 when the volume of tumor reached around 20 to 50 mm^3.
Treatment was continued for 2 weeks. Tumor volume was measured every day.
Treatment was conducted by i.v. injection of 100 μl of 10 nmol FA-TLR7 agonist in PBS for 5 days per week starting at day 6 after tumor implantation (subcutaneous, 0.05 million cells/mouse). Treatment was continued for 2 weeks. Competition group was conducted at the same schedule by co-injection of 200 times more competitors (FA-PEG-NH2) with 10 nmol of FA-TLR7 agonist. The total injection volume was 100 μl. Tumor volume was measured every day.
Treatment was conducted by i.v. injection of 100 μl of 30 nmol FA-tubulysin in PBS for 5 days per week starting at day 6 after tumor implantation (subcutaneous, 0.05 million cells/mouse). Treatment was continued for 2 weeks. Competition group was conducted at the same schedule by co-injection of 200 times more competitors (FA-PEG-NH2) with 30 nmol of FA-tubulysin. The total injection volume was 100 μl. Tumor volume was measured every day.
Treatment was conducted by i.v. injection of 100 μl of 10 nmol FA-PI3K inhibitor in PBS for 5 days per week starting at day 6 after tumor implantation (subcutaneous, 0.05 million cells/mouse). Treatment was continued for 2 weeks. Competition group was conducted at the same schedule by co-injection of 200 times more competitors (FA-PEG-NH2) with 10 nmol of FA-PI3K inhibitor. The total injection volume was 100 μl. Tumor volume was measured every day.

[2] = test system: F4/80+ macrophages; test: Intracellular staining of arginase on F4/80+ macrophages from 4T1 solid tumor; type: in vivo, balb/c mice; details: tumor digestion at end of therapeutic study
Protocol: Intracellular arginase staining: Cell surface markers for TAMs/MDSCs were labeled following procedures mentioned previously. 0.1 μL fixable viability dye eFluor® 660 was added together with antibody cocktails. After washing with PBS, cells were fixed with 4% formaldehyde in 500 μL of PBS for 15 min at 4° C. Cells were spun down to remove fixing solution. Cells were washed two times with 500 μL washing buffer containing 0.1 M glycine and 0.05% sodium azide. After being spun down a final time, cells were added 1 mL permeabilization solution containing 0.1 M glycine, 0.05% sodium azide and 0.1% triton-100. Permeabilization was performed at room temperature for 5 min. Permeabilized cells were spun down at 1500 rpm for 1 min, and the cells were washed three times with 1 mL blocking buffer containing 0.05 M glycine, 0.05% sodium azide and 0.2% gelatin. Cells were then re-suspended in 1 mL blocking buffer at 4° C. overnight to block non-specific intracellular binding. Cells were then spun down at 1500 rpm for 1 min to remove the supernatant and another 100 μL blocking buffer containing 1 μL FITC-arginase was added. Cells were kept in the dark at 4° C. overnight. After being spun down at 1500 rpm for 1 min, cells were washed with 1 mL blocking buffer and were then ready for flow cytometry analysis (BD Accuri C6™ flow cytometer). […]

[3] = test system: MDSCs (CD11b+Gr1+); test: MDSCs population (CD11b+Gr1+) in 4T1 solid tumor; type: in vivo, balb/c mice; details: tumor digestion at end of therapeutic study
Protocol: The MDSCs population (CD11b+Gr1+) was tested in groups of untreated control, FA-TLR7 agonist, FA-PI3K inhibitor, FA-Tubulysin and combination as well as competition groups.
As described in previous methods part, after tumor digestion at the end of therapeutic study, isolated cells were stained by MDSCs markers CD11b+Gr1+, see FIG. 26.

[4] = test system: F4/80+CD86+ : F4/80+CD206+ macrophages; test: Ratio of M1 to M2 macrophages in 4T1 solid tumor; type: in vivo, balb/c mice; details: tumor digestion at end of therapeutic study
Protocol: The ratio of M1 to M2 macrophages (F4/80+CD86+: F4/80+CD206+) was tested in groups of untreated control, FA-TLR7 agonist, FA-PI3K inhibitor, FA-Tubulysin and combination as well as competition groups.
As described in the previous methods part, after tumor digestion at the end of therapeutic study, isolated cells were stained by F4/80 macrophage marker and M1 (CD86), M2 (CD206) markers. Macrophages in a tumor environment have been considered as a mainly M2 macrophage function, which can support tumor growth and suppress the immune response. On the other hand, M1 macrophages have been considered to be able to eliminate tumor cells and stimulate an anti-cancer immune response. Therefore, to study the M1 to M2 macrophage ratio is very important for targeting FR-β positive TAMs/MDSCs. […] Therefore, it could be concluded that by targeting FR+ TAMs/MDSCs in 4T1 solid tumor, the three classes of FA-conjugated […] are able to convert immunosuppression M2 macrophages environment to an anti-cancer M1 macrophages environment, which would contribute to the slow growth of a tumor.

## CCCCc1nc2c(N)nc3ccccc3c2n1CC(C)(C)OC(=O)OCCSSCC(NC(=O)CCC(NC(=O)c1ccc(NCc2cnc3nc(N)[nH]c(=O)c3n2)cc1)C(=O)O)C(=O)O (stereo not drawn) [FA-TLR7 agonist]
[1]; competition group, same schedule
  anti-cancer effect on co-injection of 200 times more competitor (FA-PEG-NH2): can be competed
[1]; i.v. 5 days per week for 2 weeks from day 6, 10 nmol FA-TLR7 agonist, 10 nmol FA-PI3K inhibitor, 30 nmol FA-tubulysin
  tumor growth, therapeutic study: tumor growth was slowed down
[1]; i.v. 5 days per week for 2 weeks from day 6, especially in groups of 5 nmol, 10 nmol and 20 nmol
  tumor growth, dose study: tumor growth was slowed down
[2]
  arginase+F4/80+ cell population in live cells vs untreated control: dramatically decreased
[3]
  MDSCs population (CD11b+Gr1+) vs untreated control: dramatically decreased MDSCs population
[4]
  M1 to M2 macrophages ratio vs untreated control: dramatically increased
